“And” between values parts separate entries of the source, which are not always exact repeats. Equal entries are not always repeated.
Tested on: CD strain 630
Test: Example 7: Holloway model of CDI, GlcNAc or glucosamine in drinking water
Details: for Ethanol resistant CFU, CFU/g faeces: individual mice

| Structure (SMILES) | Water consumption: Daily consumption per mouse (20 mg/ml in drinking water) [mL] | Ethanol resistant CFU, CFU/g faeces (20 mg/ml in drinking water, hydrochloride) | Water consumption: Daily consumption per mouse (50 mg/ml in drinking water) [mL] | Ethanol resistant CFU, CFU/g faeces (50 mg/ml in drinking water) [CFU/g faeces] | Water consumption: Daily consumption per mouse (100 mg/ml in drinking water) [mL] | Ethanol resistant CFU, CFU/g faeces (100 mg/ml in drinking water, hydrochloride) | CD colonisation (levels as low as 20 mg/ml in drinking water, summary in words) | CD infections (CDI) in mice (water containing 20 mg/ml, conclusion in words) | CD colonisation (mouse, in vivo) | CD infections (CDI) in mice (mouse, in vivo) |
| --- | --- | --- | --- | --- | --- | --- | --- | --- | --- | --- |
| Cl.N[C@H]1C(O)O[C@H](CO)[C@@H](O)[C@@H]1O (stereo partly shown) [Glucosamine, Glucosamine hydrochloride] | 4.2 | 0.00E+00 CFU/g faeces (5×) and 1.90E+06 CFU/g faeces | 2.8 | 0.00E+00 | 1 | 0.00E+00 CFU/g faeces (4×) and 1.70E+05 CFU/g faeces and 8.00E+04 CFU/g faeces | could suppress CD colonisation | prevented CD infections |  |  |
| CC(=O)N[C@H]1C(O)O[C@H](CO)[C@@H](O)[C@@H]1O (stereo partly shown) [GlcNAc, N-acetyl-glucosamine] |  |  |  |  |  |  |  |  | could suppress CD colonisation | prevented CD infections |
